In publication PMC4979471 (Cell Death Discovery, 2015):
Where two headings read alike, the source gives them in different places.

How the values were obtained:
Experiment in all cases: Kinase selectivity, P33-radiolabeled assay
Type in all cases: biochemical
Conditions in all cases: 10 μM ATP
PKAcg = target: T1, PKAcg (Homo sapiens, UniProt P22612)
T1 construct: purchased Reaction Biology Corp
In short: (§1)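 ATP at 10 μM; test article at 10 μM, single point, two replicates. Output is activity as % of DMSO.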

RAF1 = target: T2, RAF1 (Homo sapiens, UniProt P04049)
T2 construct: purchased Reaction Biology Corp
T2 sequence (P04049 whole entry): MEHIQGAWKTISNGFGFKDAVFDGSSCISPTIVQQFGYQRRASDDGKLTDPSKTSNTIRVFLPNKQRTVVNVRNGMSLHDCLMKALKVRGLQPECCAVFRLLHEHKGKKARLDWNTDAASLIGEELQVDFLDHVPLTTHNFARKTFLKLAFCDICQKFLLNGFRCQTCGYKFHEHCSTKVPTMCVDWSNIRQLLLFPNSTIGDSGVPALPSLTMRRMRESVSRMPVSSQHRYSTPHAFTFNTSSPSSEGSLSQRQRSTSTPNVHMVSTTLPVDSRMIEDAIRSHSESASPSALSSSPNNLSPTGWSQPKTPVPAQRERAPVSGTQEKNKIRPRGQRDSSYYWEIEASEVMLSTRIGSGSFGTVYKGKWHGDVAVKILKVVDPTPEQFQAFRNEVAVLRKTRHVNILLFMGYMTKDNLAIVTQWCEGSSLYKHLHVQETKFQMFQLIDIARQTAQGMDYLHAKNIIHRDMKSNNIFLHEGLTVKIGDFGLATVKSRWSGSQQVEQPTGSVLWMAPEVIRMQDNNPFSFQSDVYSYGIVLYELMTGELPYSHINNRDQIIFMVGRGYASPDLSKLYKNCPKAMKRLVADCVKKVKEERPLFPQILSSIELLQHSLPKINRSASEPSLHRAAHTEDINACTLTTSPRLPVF
In short: as §1

PLK2 = target: T3, PLK2 (Homo sapiens, UniProt Q9NYY3)
T3 construct: purchased Reaction Biology Corp
T3 sequence (Q9NYY3 whole entry): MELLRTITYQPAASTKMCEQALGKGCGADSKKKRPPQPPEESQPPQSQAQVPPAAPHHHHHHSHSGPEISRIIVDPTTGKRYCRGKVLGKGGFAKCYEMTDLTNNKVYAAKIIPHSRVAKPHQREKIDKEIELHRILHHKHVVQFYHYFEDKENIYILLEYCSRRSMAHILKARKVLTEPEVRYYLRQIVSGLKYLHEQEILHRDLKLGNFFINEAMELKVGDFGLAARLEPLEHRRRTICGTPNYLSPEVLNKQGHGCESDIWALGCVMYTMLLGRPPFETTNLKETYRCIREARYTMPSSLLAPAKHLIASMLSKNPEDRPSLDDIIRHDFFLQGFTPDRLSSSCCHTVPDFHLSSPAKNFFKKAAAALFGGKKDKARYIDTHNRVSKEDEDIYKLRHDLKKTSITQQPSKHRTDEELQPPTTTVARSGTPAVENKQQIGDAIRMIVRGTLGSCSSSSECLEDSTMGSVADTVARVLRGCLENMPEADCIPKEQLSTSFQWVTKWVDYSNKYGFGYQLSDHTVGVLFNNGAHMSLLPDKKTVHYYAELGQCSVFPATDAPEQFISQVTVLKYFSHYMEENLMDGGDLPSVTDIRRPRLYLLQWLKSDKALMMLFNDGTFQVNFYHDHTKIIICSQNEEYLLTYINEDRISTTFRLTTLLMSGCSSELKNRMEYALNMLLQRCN
In short: as §1

STK38/NDR1 = target: T4, STK38/NDR1 (Homo sapiens, UniProt Q15208)
T4 construct: purchased Reaction Biology Corp
T4 sequence (Q15208 whole entry): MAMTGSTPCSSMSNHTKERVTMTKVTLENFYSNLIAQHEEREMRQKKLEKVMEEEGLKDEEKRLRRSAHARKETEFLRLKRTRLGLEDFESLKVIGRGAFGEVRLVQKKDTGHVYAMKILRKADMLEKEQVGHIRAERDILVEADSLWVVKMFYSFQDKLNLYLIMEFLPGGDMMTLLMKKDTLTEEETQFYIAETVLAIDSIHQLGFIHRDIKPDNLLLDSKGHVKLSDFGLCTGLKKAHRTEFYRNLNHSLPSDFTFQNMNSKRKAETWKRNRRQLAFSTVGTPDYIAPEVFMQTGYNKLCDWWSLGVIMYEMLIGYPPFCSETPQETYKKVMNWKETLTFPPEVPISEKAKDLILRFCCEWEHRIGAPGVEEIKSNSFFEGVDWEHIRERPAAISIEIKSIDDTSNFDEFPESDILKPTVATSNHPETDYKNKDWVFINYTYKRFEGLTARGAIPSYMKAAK
In short: as §1

MST3/STK24 = target: T5, MST3/STK24 (Homo sapiens, UniProt Q9Y6E0)
T5 construct: purchased Reaction Biology Corp
T5 sequence (Q9Y6E0 whole entry): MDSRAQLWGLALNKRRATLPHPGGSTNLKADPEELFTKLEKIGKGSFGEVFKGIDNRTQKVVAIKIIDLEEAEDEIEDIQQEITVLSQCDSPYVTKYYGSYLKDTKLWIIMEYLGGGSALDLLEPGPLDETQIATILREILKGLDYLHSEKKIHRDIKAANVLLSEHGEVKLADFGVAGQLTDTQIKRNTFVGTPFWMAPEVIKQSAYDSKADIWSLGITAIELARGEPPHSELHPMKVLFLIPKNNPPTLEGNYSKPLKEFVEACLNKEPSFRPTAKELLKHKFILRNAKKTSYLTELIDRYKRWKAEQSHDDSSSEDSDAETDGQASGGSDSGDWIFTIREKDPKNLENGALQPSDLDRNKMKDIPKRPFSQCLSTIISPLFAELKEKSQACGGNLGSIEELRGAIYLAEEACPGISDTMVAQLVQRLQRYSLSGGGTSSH
In short: as §1

MEKK3 = target: T6, MEKK3 (Homo sapiens, UniProt Q99759)
T6 construct: purchased Reaction Biology Corp
T6 sequence (Q99759 1-626): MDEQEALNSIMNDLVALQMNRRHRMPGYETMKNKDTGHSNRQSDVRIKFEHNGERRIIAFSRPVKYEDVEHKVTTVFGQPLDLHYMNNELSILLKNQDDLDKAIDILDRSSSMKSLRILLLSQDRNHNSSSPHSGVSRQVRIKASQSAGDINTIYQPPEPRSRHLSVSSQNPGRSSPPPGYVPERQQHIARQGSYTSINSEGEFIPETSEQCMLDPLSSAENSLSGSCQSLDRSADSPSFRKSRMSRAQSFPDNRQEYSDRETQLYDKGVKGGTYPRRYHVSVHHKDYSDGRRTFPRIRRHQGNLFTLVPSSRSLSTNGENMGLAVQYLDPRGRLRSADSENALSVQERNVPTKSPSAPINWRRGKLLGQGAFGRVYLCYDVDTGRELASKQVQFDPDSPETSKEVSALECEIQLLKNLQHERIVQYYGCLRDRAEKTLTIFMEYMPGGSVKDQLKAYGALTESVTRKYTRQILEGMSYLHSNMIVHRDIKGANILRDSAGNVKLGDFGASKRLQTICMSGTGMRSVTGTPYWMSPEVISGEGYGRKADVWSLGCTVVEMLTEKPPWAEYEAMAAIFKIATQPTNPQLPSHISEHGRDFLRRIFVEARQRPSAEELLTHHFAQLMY
In short: as §1

GRK1 = target: T7, GRK1 (Homo sapiens, UniProt Q15835)
T7 construct: purchased Reaction Biology Corp
T7 sequence (Q15835 1-563): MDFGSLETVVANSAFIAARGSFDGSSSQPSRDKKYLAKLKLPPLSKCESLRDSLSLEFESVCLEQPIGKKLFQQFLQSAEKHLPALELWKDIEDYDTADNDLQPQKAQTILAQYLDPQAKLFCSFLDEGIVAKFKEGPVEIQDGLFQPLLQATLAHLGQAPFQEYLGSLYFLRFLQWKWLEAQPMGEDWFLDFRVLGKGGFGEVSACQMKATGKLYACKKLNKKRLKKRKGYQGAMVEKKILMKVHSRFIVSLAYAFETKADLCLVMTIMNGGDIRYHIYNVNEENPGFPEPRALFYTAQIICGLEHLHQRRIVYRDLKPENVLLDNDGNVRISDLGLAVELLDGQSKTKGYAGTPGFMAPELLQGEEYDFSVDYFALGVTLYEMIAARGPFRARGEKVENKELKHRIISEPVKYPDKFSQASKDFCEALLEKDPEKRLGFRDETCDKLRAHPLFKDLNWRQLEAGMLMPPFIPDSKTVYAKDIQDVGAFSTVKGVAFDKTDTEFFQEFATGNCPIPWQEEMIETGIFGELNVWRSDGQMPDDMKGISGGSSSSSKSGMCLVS
In short: as §1

EPHA3 = target: T8, EPHA3 (Homo sapiens, UniProt P29320)
T8 construct: purchased Reaction Biology Corp
T8 sequence (P29320 21-983): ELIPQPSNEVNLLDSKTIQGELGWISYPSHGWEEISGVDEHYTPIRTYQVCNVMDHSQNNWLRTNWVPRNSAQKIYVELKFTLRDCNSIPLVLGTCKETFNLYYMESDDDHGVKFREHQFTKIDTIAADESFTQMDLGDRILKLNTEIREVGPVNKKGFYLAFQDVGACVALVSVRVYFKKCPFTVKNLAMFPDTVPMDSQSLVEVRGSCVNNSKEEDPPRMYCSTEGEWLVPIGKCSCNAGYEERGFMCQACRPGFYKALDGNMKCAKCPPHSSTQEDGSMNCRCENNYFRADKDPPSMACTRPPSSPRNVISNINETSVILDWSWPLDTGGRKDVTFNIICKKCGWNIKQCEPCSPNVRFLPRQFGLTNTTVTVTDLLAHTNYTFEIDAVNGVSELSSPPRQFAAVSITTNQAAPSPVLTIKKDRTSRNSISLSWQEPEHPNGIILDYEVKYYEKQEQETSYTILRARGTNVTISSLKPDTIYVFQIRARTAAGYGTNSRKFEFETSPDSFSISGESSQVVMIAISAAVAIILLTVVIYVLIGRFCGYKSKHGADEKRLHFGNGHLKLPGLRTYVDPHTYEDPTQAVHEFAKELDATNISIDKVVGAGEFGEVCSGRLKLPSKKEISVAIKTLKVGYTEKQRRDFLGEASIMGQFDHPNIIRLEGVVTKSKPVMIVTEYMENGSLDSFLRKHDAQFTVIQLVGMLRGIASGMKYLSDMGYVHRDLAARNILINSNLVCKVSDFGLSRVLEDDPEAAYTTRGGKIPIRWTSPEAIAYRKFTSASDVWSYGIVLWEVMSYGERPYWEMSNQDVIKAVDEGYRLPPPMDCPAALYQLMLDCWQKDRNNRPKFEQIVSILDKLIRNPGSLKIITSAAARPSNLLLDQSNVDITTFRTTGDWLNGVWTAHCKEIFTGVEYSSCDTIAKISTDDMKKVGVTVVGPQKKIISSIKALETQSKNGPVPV
In short: as §1

TGFBR2 = target: T9, TGFBR2 (Homo sapiens, UniProt P37173)
T9 construct: purchased Reaction Biology Corp
T9 sequence (P37173 23-567): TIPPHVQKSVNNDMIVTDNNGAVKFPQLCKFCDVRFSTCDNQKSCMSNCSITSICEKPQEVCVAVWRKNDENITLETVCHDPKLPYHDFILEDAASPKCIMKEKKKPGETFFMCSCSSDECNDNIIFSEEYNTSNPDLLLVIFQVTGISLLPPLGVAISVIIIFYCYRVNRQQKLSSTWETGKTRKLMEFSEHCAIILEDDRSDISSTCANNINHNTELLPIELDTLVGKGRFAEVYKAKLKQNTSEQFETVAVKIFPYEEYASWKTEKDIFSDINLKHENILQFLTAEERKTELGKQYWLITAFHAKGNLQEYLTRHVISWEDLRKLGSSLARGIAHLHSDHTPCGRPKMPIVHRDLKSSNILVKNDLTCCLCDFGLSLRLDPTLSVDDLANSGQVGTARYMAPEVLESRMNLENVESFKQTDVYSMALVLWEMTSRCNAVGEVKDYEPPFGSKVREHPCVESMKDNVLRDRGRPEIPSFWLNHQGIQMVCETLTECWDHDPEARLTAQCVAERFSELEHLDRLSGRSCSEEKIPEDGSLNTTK
In short: as §1

[1] = read-out: % Enzyme Activity (relative to DMSO controls) AVG
[2] = read-out: % Enzyme Activity (relative to DMSO controls) Data 1
[3] = read-out: % Enzyme Activity (relative to DMSO controls) Data 2

T1 sequence (P22612 whole entry): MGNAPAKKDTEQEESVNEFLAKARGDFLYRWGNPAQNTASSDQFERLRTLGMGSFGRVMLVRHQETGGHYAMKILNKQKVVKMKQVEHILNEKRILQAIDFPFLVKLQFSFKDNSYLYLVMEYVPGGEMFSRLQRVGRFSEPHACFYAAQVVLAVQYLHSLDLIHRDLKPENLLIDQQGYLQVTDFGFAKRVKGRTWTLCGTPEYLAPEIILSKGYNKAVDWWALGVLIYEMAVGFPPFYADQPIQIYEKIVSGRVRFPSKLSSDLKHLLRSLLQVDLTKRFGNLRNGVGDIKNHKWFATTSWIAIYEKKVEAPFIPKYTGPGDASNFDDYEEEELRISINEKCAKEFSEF

## CC(C)(C)C(=O)N1N=CC[C@H]1c1ccccc1 [GSK′963]
PKAcg; [1]
  remaining activity at 10 µM: 122%
PKAcg; [2]
  remaining activity at 10 µM: 123%
PKAcg; [3]
  remaining activity at 10 µM: 122%
RAF1; [1]
  remaining activity at 10 µM: 93.7%
RAF1; [2]
  remaining activity at 10 µM: 94.8%
RAF1; [3]
  remaining activity at 10 µM: 92.7%
PLK2; [1]
  remaining activity at 10 µM: 110%
PLK2; [2]
  remaining activity at 10 µM: 108%
PLK2; [3]
  remaining activity at 10 µM: 111%
STK38/NDR1; [1]
  remaining activity at 10 µM: 102%
STK38/NDR1; [2]
  remaining activity at 10 µM: 100%
STK38/NDR1; [3]
  remaining activity at 10 µM: 104%
MST3/STK24; [1]
  remaining activity at 10 µM: 87.4%
MST3/STK24; [2]
  remaining activity at 10 µM: 87.3%
MST3/STK24; [3]
  remaining activity at 10 µM: 87.5%
MEKK3; [1]
  remaining activity at 10 µM: 119%
MEKK3; [2]
  remaining activity at 10 µM: 122%
MEKK3; [3]
  remaining activity at 10 µM: 115%
GRK1; [1]
  remaining activity at 10 µM: 108%
GRK1; [2]
  remaining activity at 10 µM: 109%
GRK1; [3]
  remaining activity at 10 µM: 106%
EPHA3; [1]
  remaining activity at 10 µM: 91.8%
EPHA3; [2]
  remaining activity at 10 µM: 94.4%
EPHA3; [3]
  remaining activity at 10 µM: 89.2%
TGFBR2; [1]
  remaining activity at 10 µM: 116%
TGFBR2; [2]
  remaining activity at 10 µM: 119%
TGFBR2; [3]
  remaining activity at 10 µM: 114%
